In brackets after ≈: the same amount, converted by molar mass.
What was measured:
tubulin = tubulin depolymerization assay; assay type: biochemical; settings: for IC50: in vitro, read-out: ID₅₀(µM) in tubulin depolymerization assay
Source text: Taxol (1), the Meerwein product (4), the acetyl chloride product (7), and A-Nor-Taxol (10) were also subjected to tubulin depolymerization assays with the results presented in Table XVI below.

KB cells = assay: KB cell culture assay; assay type: cell-based; settings: ED₅₀ of less than 4.0 indicates activity; for EC50: Homo sapiens, read-out: ED⁵⁰ (µg/ml) cell culture
Description: Taxol (1), the Meerwein product (4), the acetyl chloride product (7), and A-nor-taxol (10) were tested in KB cell culture assays. […]

| Compound | IC50 (tubulin) [µM] | activity in the tubulin depolymerization assay compared with taxol (tubulin; result in words) | EC50 (KB cells) [µg/mL] | ED⁵⁰ (µg/ml) cell culture (KB cells) [µg/mL] |
| --- | --- | --- | --- | --- |
| C=C(C)C12CC(OC(=O)C(O)C(NC(=O)c3ccccc3)c3ccccc3)C(C)=C1C(OC(C)=O)C(=O)C1(C)C(O)CC3OCC3(OC(C)=O)C1C2OC(=O)c1ccccc1 (stereo not drawn) [A-Nortaxol (10), A-Nortaxol] | 0.9 | very similar to taxol | 2 (≈ 2.39 µM) |  |
| CC(=O)O[C@H]1C(=O)[C@@]2(C)[C@H]([C@H](OC(=O)c3ccccc3)[C@]3(O)C[C@H](OC(=O)[C@H](O)[C@@H](NC(=O)c4ccccc4)c4ccccc4)C(C)=C1C3(C)C)[C@]1(OC(C)=O)CO[C@@H]1C[C@@H]2O [Taxol (1), taxol] | 0.3 |  | 1e-05 (≈ 1.17e-05 µM) |  |
| acetylated A-Nor-D-seco-taxol [Acetyl Chloride product (7)] |  |  |  | 2.5 |

Source: patent EP0505047B1, “Rearranged taxol compounds and method of using in testing of in vivo activity” (VIRGINIA TECH INTELLECTUAL PROPERTIES, INC., priority 1991, dated 1992)
